Test results published in publication PMC8899577, “Targeting the anti-apoptotic Bcl-2 family proteins: machine learning virtual screening and biological evaluation of new small molecules” (Theranostics, 2022).
Where two headings read alike, the source gives them in different places.

What was measured:
[1] = Pharmacokinetics in mouse plasma (LC-MS/MS); assay type: in vivo, C57/Bl6 mice; conditions: mice, intraperitoneal; for Tmax: read-out: time of maximum plasma concentration after injection
Procedure: 184 In vivo experi ments. […]
186 30% PEG400 (Sigma-Al drich) and 60% NaCl. Mice were sacrificed starting from 15 min to 24 h
187 after injection. Blood samples were collected b y cardiac puncture, centri fuged at 3,000 g for 10 min
188 at 4 °C and the obtained plasma was stored at - 80 °C until the analysis performed b y liquid
189 chromatograph y tandem mass spectrometry (LC –MS/MS). Given that the two compounds were
190 singularl y administered to the animals for the pharmacokinetic studies, IS20 was used as internal
191 standard (IS) for IS21 and vice versa. Internal Standard Working Solutions (IS-WS) were prepared
192 by adding appropriate volumes of the stock solutions to 50 mL of 0.1% formic acid (Fluka, Milan,
193 Ital y) in methanol:acetonitrile (50:50, v/v, Sigma -Aldrich), in order to reach a final concentration of
194 50 ng/m L. The solutions were maintained at - 20°C.
195 LC-MS/MS Analysis. 40 µ L of mouse plasma were mixed with 160 µ L o f IS -WS. The mixture was
196 vortex mixed for 1 min and centrifuged at 12,000 g for 10 min at 4 °C. The supernatant was
197 collected and 8 µL were injected into the LC–MS/MS system. The HP LC equipment consists of a
198 Series 200 Micro-LC Pump and a Series 200 autosampler from Perkin Elm er (Norwalk, CT, USA).
199 A triple quadrupole mass spectrometer, AB-Sciex API2000 (Toronto, ON, Canada) was used for
200 detection. The anal yt es were anal yzed using a C18 phase Kinetex column (10 cm x 2.1 mm ID) fro m
201 Phenomenex (Torran ce, CA, USA) packed with core–shell particles of […]. The mobile phases
202 were (A) acetonitrile an d (B) water, both containing 0.1% formic acid, at a flow rate of 0.25 mL /
203 min and were entirel y transferred into the mass spectrometer source. Gradient elution was as
204 follows: increase of the organic phase from 60 to 80% in 0.8 min, then to 90% in the following 1.2
205 min and linearly to 100% in 2 min. Finally, after 3.9 min of 100% , the column was led to the
206 original conditions in 2.5 min to enable equilibration of the column.
207 Both anal ytes were detected in positive ionization with a capillar y voltage of 5500 V, nebulizer gas
208 (air) at 40 psi, turbo gas (nitrogen) at 70 psi and 400 °C. The other ion source parameters were set
209 as follows: curtain gas (CUR) 18 psi; collision gas (CAD) 6 psi; declustering potential (DP) 80 V,
210 entrance potential (EP) 1 2 V.
211 The quantitative data were acquired using Multi Reaction Monitoring (MRM) acquisition mode.
212 Two MRM transitions (precursor ion>fragment ion) were selected for the analytes. For IS20
214 eV while collision cell exit potential (CXP) was at 19 and 8 V for the two transitions, respectively.
216 and 51 eV while collision cell exit potential (CXP) was at 21 and 6 V for the two transitions,
218 The anal ytical method was validated according to FDA guidelines for bioanalytical method
219 validation. Linearity, recover y, matrix effect, precision, accurac y, limits of detection (LODs) and
220 lower limits of quantification (LLOQs) were evaluated.
221 Calibration standard solutions were prepared in blank plasma b y spiking 25 µL of a standard
222 mixture at appropriate concentration to 40 µL of plasma and by adding 140 µL of methanol:
223 acetonitrile (50:50, v/v). Calibrators were then treated similarly to the animal samples. The
224 calibration range was 5 to 7500 ng/ mL and the calibrators were prepared at nine level of
225 concentration. Precision, recover y and accurac y w ere ev aluated at three lev el of concentrations (25,
226 […]) and resulted within the acceptable limits.
227 The limit of detection (LOD) was defined as the lowest concentration with a signal- to-noise (S/N)
228 ratio greater than 3. The limit of quantification (LOQ) was defined as the concentration at which
229 both precision (RSD%) and accurac y were less than 20%. LOQ resulted to be 2 ng/ mL while LOD
231 The validated method was then successfully applied in measuring IS20 and IS21 following drug […]

[2] = test system: H1299 cells; test: Flow cytometry subG1 peak (PI staining), H1299; assay type: cell-based, Human; conditions: 20 µM for 72 h
Procedure: Flow cytometric analysis (BD Accuri™ C6, BD Biosciences) was performed to evaluate cell cycle distribution by propidium iodide (PI) staining, and cell viability by using the PI dye exclusion assay as previously reported.
Figure 5 Analysis of apoptosis induction by IS20 and IS21 in leukemia, melanoma and NSCLC cells. […] (A-F) Reported images are representative of two independent experiments with similar results. HSP72/73 or α-Tubulin are shown as loading and transferring control. (G) Flow cytometric quantification of cells in the subG1 peak of cell cycle distribution by propidium iodide staining in HL60 cell line treated with IS20 or IS21 (20 μM for 24 h) and in M14, H1299 and MDA-MB-231 cell lines treated with IS20 or IS21 (20 μM for 72 h). Data are reported as mean ± SD of three independent experiments. p-values were calculated between control (Ctrl) and treated cells, * p < 0.05. (H) Flow cytometric quantification of cells in the subG1 peak by propidium iodide staining in M14 and H1299 cell lines treated with IS20 or IS21 (20 μM, 72 h) in presence or absence of the pan caspase inhibitor z-VAD (50 μM). p-values were calculated between treated control (Ctrl) cells, # p < 0.01, ## p < 0.001 or between cells treated with IS20 or IS21 alone or in combination with z-VAD, * p < 0.05, ** p < 0.005. (G-H) Data are reported as mean of two (H) or three (G) experiments ± SD.

[3] = test system: HL60 cells; test: Western blot of LC3B-I/LC3B-II (autophagy), HL60; assay type: cell-based, Human; conditions: 20 µM for 24 h
[4] = C57/Bl6, mouse, plasma, ip, 100 mg/kg

Row | SMILES | Tmax [1, 4] | subG1 peak of cell cycle distribution, H1299 [2] | ratio of LC3B-II on LC3B-I, HL60 [3] | Cmax ([1]; C57/Bl6, mouse, ip, 50 mg/kg, plasma) | AUC ([1]; C57/Bl6, mouse, ip, 50 mg/kg, plasma, read-out: mean AUCtot) | half-life ([1]; C57/Bl6, mouse, ip, 50 mg/kg, plasma, read-out: mean t½ (converted)) | Tmax ([1]; C57/Bl6, mouse, plasma, ip, 50 mg/kg) | mean total clearance ([1]; 50 mg/kg)
1 | CCCCOc1ccc(C2/C(=C(\O)c3ccc4c(c3)CC(C)O4)C(=O)C(=O)N2c2nnc(SCc3ccc(Cl)cc3)s2)cc1OCC (centres unmarked) [IS20] | 16 h | presence of subG1 peak | Increased ratio |  |  |  |  | 
2 | CCCCCOc1ccc(C2/C(=C(\O)c3ccc4c(c3)CC(C)O4)C(=O)C(=O)N2c2nnc(SCc3ccc(Cl)cc3)s2)cc1OCC (centres unmarked) [IS21] | 4 h | presence of subG1 peak | Increased ratio | 4.1 µM | 40.9 µM·h | 11 h | 2 h | 26.3 mL/min/kg
